Data as given in patent US9883675B2, “Method for controlling pests” (SUMITOMO CHEMICAL COMPANY, LIMITED, priority 2013, dated 2018).

Test system: Diamondback moth (Plutella xylostella)
Assay: Test Example 1: Japanese radish seed treatment, mortality of Diamondback moth larvae
Format: in vivo
Settings: 48 h, third instar larvae released four days after seeding, observed two days after release, average of two replications
Experimental: Each of the present fused heterocyclic compounds 3, 4, 5, 9, 15, 16, 17, 18, 19, 20, 22, 25, 72, 74, 85, 130, 399, 409, 414, 419, 443, 444, 445, 464 and 467 was dissolved in acetone (available from Wako Pure Chemical Industries, Ltd.) containing 5% (W/V) SOLGEN TW-20 (available from Daiichi-Kogyo Seiyaku Co. Ltd.) so as to give a prescribed concentration, and to prepare the testing solution.
Nine (9) grains of the Japanese raddish (Raphanus sativas var. longipinnatus) were placed in a 2 ml volume polypropylene microtube (manufactured by As One Co.) and thereto was added 18 μl of the above testing solution and the seeds in the microtube were shaken and stirred on Stirrer (Trade name: VORTEX-GENIE2, manufactured by Scientific Industries, Inc.). After the testing solution was spread uniformly to the whole seed, the seeds were allowed to air dry.
To a 90 ml volume of plastic cup filled with ten (10) g of culture soil (Trade name: Aisai No. 1; available from Katakura Chikkarin Co., Ltd.) was added water (5 ml) and thereto was seeded three (3) grains of the above seeds.
At four days after the seeding, Diamondback moth (Plutella xylostella) at the third instar larval stages were released in a ratio of 10 (ten) heads of insects per the cup, and then the cups were covered with nylon gauze and covered with a lid (hereinafter, referred to as “treated group”).
On the other hand, Japanese raddish was seeded by the similar procedures to the treated group except that the present fused heterocyclic compound was not dissolved in acetone (available from Wako Pure Chemical Industries, Ltd.) containing 5% (W/V) SOLGEN TW-20 (available from Daiichi-Kogyo Seiyaku Co. Ltd.), and the larvae were released, and the cups were covered with a lid (hereinafter, referred to as “Untreated group”).
At two days after the release, the surviving and death of the larvae were observed and on basis of the results of the observation, the mortalities of both groups were calculated by the following equation 1), respectively. Two replication tests were performed on each group. The average value is shown below. Mortality (%)=(Total number of […])/Total number of Tested insects×100 Equation 1)

CCS(=O)(=O)c1cccnc1-c1nc2cc(C(F)(F)C(F)(F)F)ccc2o1 [Present fused heterocyclic compound 467, 2-(3-Ethylsulfonylpyridin-2-yl)-5-pentafluoroethyl-benzoxazole]
mortality at 0.01 mg (dose 0.01 mg/1 grain of seed): 100%
mortality at 0.2 mg (dose 0.2 mg/1 grain of seed): 100%
